Test results reported in the NIST ThermoML archive (doi:10.1021/je700282w).
± gives the expanded uncertainty stated by the source.

Assay: activity coefficient (dimensionless); of the first substance listed, at infinite dilution; xn = mol fraction of the nth substance listed
Settings: 101 kPa, Liquid, Chromatography, x1 = 0

| Structure (SMILES) | activity coefficient (303.15 K) | activity coefficient (313.15 K) | activity coefficient (323.15 K) | activity coefficient (333.15 K) | activity coefficient (343.15 K) | activity coefficient (353.15 K) | activity coefficient (363.15 K) |
| --- | --- | --- | --- | --- | --- | --- | --- |
| Cc1ccccc1C [1,2-dimethylbenzene] + CCCCn1cc[n+](C)c1.O=S(=O)([O-])C(F)(F)F | 3.66 ± 0.36 | 3.67 ± 0.36 | 3.68 ± 0.37 | 3.7 ± 0.37 | 3.71 ± 0.37 | 3.76 ± 0.37 | 3.78 ± 0.38 |
| Cc1cccc(C)c1 [1,3-dimethylbenzene] + CCCCn1cc[n+](C)c1.O=S(=O)([O-])C(F)(F)F | 4.72 ± 0.47 | 4.66 ± 0.46 | 4.58 ± 0.46 | 4.47 ± 0.45 | 4.41 ± 0.44 | 4.33 ± 0.43 | 4.07 ± 0.41 |
| Cc1ccc(C)cc1 [1,4-dimethylbenzene] + CCCCn1cc[n+](C)c1.O=S(=O)([O-])C(F)(F)F | 4.3 ± 0.43 | 4.32 ± 0.43 | 4.33 ± 0.43 | 4.37 ± 0.43 | 4.41 ± 0.44 | 4.42 ± 0.44 | 4.42 ± 0.44 |
| CC(C)CC(C)(C)C [2,2,4-trimethylpentane] + CCCCn1cc[n+](C)c1.O=S(=O)([O-])C(F)(F)F | 57 ± 5.7 | 52.9 ± 5.3 | 50.9 ± 5.1 | 47.9 ± 4.8 | 45.6 ± 4.5 | 43.9 ± 4.4 | 40.8 ± 4.1 |
| c1ccccc1 [benzene] + CCCCn1cc[n+](C)c1.O=S(=O)([O-])C(F)(F)F | 1.81 ± 0.18 | 1.82 ± 0.18 | 1.83 ± 0.18 | 1.84 ± 0.18 | 1.86 ± 0.18 | 1.87 ± 0.19 | 1.9 ± 0.19 |
| C1CCCCC1 [cyclohexane] + CCCCn1cc[n+](C)c1.O=S(=O)([O-])C(F)(F)F | 21.8 ± 2.2 | 20.5 ± 2 | 19.2 ± 1.9 | 18.1 ± 1.8 | 16.9 ± 1.7 | 15.5 ± 1.5 | 14.6 ± 1.4 |
| C1=CCCCC1 [cyclohexene] + CCCCn1cc[n+](C)c1.O=S(=O)([O-])C(F)(F)F | 10.9 ± 1.1 | 10.4 ± 1 | 10.1 ± 1 | 9.69 ± 0.96 | 9.34 ± 0.93 | 9.15 ± 0.91 | 8.82 ± 0.88 |
| CCCCCCCCCC [decane] + CCCCn1cc[n+](C)c1.O=S(=O)([O-])C(F)(F)F | 897 | 709 | 576 | 483 | 409 | 348 | 306 |
| CCc1ccccc1 [ethylbenzene] + CCCCn1cc[n+](C)c1.O=S(=O)([O-])C(F)(F)F | 4.62 ± 0.46 | 4.57 ± 0.46 | 4.54 ± 0.45 | 4.52 ± 0.45 | 4.5 ± 0.45 | 4.49 ± 0.45 | 4.47 ± 0.44 |
| CCCCCCC [heptane] + CCCCn1cc[n+](C)c1.O=S(=O)([O-])C(F)(F)F | 56.7 ± 5.7 | 51.6 ± 5.2 | 48.5 ± 4.8 | 46 ± 4.6 | 43.3 ± 4.3 | 41.1 ± 4.1 | 38.8 ± 3.9 |
| CCCCCC [hexane] + CCCCn1cc[n+](C)c1.O=S(=O)([O-])C(F)(F)F | 37.8 ± 3.8 | 35.7 ± 3.6 | 33.9 ± 3.4 | 32.1 ± 3.2 | 30.3 ± 3 | 29.1 ± 2.9 | 27.6 ± 2.8 |
| CC1CCCCC1 [methylcyclohexane] + CCCCn1cc[n+](C)c1.O=S(=O)([O-])C(F)(F)F | 30.2 ± 3 | 28.5 ± 2.8 | 26.8 ± 2.7 | 25.4 ± 2.5 | 24.1 ± 2.4 | 22.9 ± 2.3 | 21.6 ± 2.1 |
| CCCCCCCCC [nonane] + CCCCn1cc[n+](C)c1.O=S(=O)([O-])C(F)(F)F | 122 ± 12 | 111 ± 11 | 103 ± 10 | 93.3 ± 9.3 | 88.2 ± 8.8 | 81.3 ± 8.1 | 75.9 ± 7.6 |
| CCCCCCCC [octane] + CCCCn1cc[n+](C)c1.O=S(=O)([O-])C(F)(F)F | 87.2 ± 8.7 | 79.9 ± 8 | 74.1 ± 7.4 | 68.3 ± 6.8 | 63.2 ± 6.3 | 60.3 ± 6 | 55.1 ± 5.5 |
| CCCCC [pentane] + CCCCn1cc[n+](C)c1.O=S(=O)([O-])C(F)(F)F | 26.5 ± 2.6 | 24.9 ± 2.5 | 23.9 ± 2.4 | 23.2 ± 2.3 | 22.2 ± 2.2 | 21.2 ± 2.1 | 19.9 ± 2 |
| C=Cc1ccccc1 [styrene] + CCCCn1cc[n+](C)c1.O=S(=O)([O-])C(F)(F)F | 2.46 ± 0.24 | 2.48 ± 0.25 | 2.49 ± 0.25 | 2.51 ± 0.25 | 2.53 ± 0.25 | 2.54 ± 0.25 | 2.57 ± 0.26 |
| Cc1ccccc1 [toluene] + CCCCn1cc[n+](C)c1.O=S(=O)([O-])C(F)(F)F | 2.72 ± 0.27 | 2.75 ± 0.27 | 2.78 ± 0.28 | 2.8 ± 0.28 | 2.83 ± 0.28 | 2.85 ± 0.28 | 2.88 ± 0.29 |
